Experimental data: patent publication US12186302B2, “Dipeptidyl peptidase-IV inhibitor and food with function claims” (TOYOTA JIDOSHA KABUSHIKI KAISHA, priority 2020, dated 2025)

Legend:
[1] = target: T1, DPP-IV (Homo sapiens, UniProt P27487); settings: background art, JP Patent Publication (Kokai) No. 2018-118939 A; cited from earlier work
[2] = target: T1, DPP-IV; assay: DPP (IV) Inhibitor Screening Assay Kit (Cayman Chemical), fluorescence; format: biochemical; settings: for DPP-IV inhibitory activity (inhibition rate, FIG. 1): comparison of various catechins, 37° C., 30 minutes
Excerpt: In this Example, various catechins including a methylated catechin were used to examine their DPP-IV inhibitory activity. Regarding the DPP-IV inhibitory activity, a commercially available DPP (IV) Inhibitor Screening Assay Kit (manufactured by Cayman Chemical) was used. Catechins tested in this Example were epicatechin-3-O-gallate (ECG), epicatechin (EC), epigallocatechin(EGC), (−)-epigallocatechin gallate (EGCG), and (−)-epigallocatechin 3-(3″-O-methyl)gallate (EGCG3″Me). These catechins were purchased from Nagara Science Co., Ltd. In addition, caffeine was purchased from Sigma-Aldrich, and L-theanine was purchased from FUJIFILM Wako Pure Chemical Corporation for testing.
In the experiment, first, a sample (5 μL), buffer (15 μL), DPP-IV (5 μL), and a substrate (25 μL) were added to a 96-well plate and incubated at 37° C. for 30 minutes. Then, the fluorescence intensity was measured by using a fluorometer (Envision 2104 Multilaber Reader, manufactured by Perkin Elmer) (excitation wavelength: 355 nm; fluorescence wavelength: 450 nm).
Next, the fluorescence intensity measured with the addition of ultrapure water (5 μL), buffer (20 μL), and a substrate (25 μL) was subtracted as a background from the fluorescence intensity of each sample. The fluorescence intensity measured with the addition of ultrapure water (5 μL), buffer (15 μL), DPP-IV (5 μL), and a substrate (25 μL) was defined as 100% initial activity.
The inhibition rate was calculated by subtracting the fluorescence intensity of the sample from the fluorescence intensity of 100% initial activity, then dividing the difference by the fluorescence intensity of 100% initial activity, and finally multiplying the quotient by 100. As a positive control, sitagliptin included in the kit was used.
Specifically, in the experiment described above, the concentration of EGCG3″Me was set to 1 μM, 5 μM, 10 μM, 50 μM, 100 μM or 200 μM, and the DPP-IV inhibitory activity was measured using the DPP (IV) Inhibitor Screening Assay Kit.

T1 sequence (P27487 whole entry): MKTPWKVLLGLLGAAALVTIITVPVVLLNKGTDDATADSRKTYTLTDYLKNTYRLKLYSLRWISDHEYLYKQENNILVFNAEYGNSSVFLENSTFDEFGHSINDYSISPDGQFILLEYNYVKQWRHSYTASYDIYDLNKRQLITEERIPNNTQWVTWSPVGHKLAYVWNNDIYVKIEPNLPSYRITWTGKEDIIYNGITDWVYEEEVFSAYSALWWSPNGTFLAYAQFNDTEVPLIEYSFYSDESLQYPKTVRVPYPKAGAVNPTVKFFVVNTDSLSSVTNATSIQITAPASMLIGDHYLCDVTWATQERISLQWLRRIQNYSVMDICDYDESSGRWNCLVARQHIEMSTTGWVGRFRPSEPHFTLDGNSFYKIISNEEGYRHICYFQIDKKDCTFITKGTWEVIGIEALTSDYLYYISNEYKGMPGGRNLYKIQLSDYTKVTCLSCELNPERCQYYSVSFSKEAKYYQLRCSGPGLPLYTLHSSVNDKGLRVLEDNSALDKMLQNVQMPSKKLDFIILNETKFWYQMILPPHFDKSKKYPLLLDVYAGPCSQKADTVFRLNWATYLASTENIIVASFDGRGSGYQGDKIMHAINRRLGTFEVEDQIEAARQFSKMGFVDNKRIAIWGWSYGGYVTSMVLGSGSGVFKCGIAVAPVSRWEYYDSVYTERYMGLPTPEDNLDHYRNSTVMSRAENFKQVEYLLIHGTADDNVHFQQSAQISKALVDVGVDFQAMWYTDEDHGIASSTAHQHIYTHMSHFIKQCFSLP

| Compound | DPP-IV inhibitory effect [1] | DPP-IV inhibitory activity (inhibition rate, FIG. 1) [2] | relationship between concentration and DPP-IV inhibitory activity (FIG. 2) ([2]; 1 μM, 5 μM, 10 μM, 50 μM, 100 μM or 200 μM) | DPP-IV inhibitory activity (FIG. 2) ([2]; when concentration exceeds 50 μM) |
| --- | --- | --- | --- | --- |
| O=C(O[C@@H]1Cc2c(O)cc(O)cc2O[C@@H]1c1ccc(O)c(O)c1)c1cc(O)c(O)c(O)c1 [ECg, epicatechin gallate] | have the DPP-IV inhibitory effect |  |  |  |
| Oc1cc(O)c2c(c1)O[C@H](c1cc(O)c(O)c(O)c1)[C@H](O)C2 [EGC, epigallocatechin] | have the DPP-IV inhibitory effect |  |  |  |
| Oc1cc(O)c2c(c1)O[C@H](c1cc(O)c(O)c(O)c1)[C@@H](O)C2 [GC, gallocatechin] | have the DPP-IV inhibitory effect |  |  |  |
| O=C(O[C@@H]1Cc2c(O)cc(O)cc2O[C@H]1c1cc(O)c(O)c(O)c1)c1cc(O)c(O)c(O)c1 [GCg, gallocatechin gallate] | have the DPP-IV inhibitory effect |  |  |  |
| (−)-epigallocatechin gallate [EGCG] | have the DPP-IV inhibitory effect | excellent DPP-IV inhibitory activity |  |  |
| catechin gallate [Cg] | have the DPP-IV inhibitory effect |  |  |  |
| epigallocatechin-3-O-(3-O-methyl)gallate [EGCG3″Me] |  | particularly excellent DPP-IV inhibitory activity | tends to increase as the concentration increases | extremely excellent DPP-IV inhibitory activity |
